molecular target: T1, Human recombinant CD38 (Homo sapiens, UniProt P28907); experiment: CD38 hydrolase inhibition assay; format: biochemical; details: glycohydrolase activity, 0.2 ng/μL CD38, 100 μM ε-NAD substrate, fluorescence excitation 300 nm / emission 410 nm
T1 construct: purchased BPS Bioscience
T1 sequence (P28907 1-300): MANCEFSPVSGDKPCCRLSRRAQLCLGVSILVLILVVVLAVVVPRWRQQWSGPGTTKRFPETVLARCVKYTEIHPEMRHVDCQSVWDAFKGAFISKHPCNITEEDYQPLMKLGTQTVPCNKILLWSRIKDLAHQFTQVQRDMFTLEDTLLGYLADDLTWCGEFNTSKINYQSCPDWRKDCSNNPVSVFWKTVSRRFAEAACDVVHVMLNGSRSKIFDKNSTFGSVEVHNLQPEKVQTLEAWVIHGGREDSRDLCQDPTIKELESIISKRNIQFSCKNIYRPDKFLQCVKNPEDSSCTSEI
Experimental: Example 22: CD38 Hydrolase Inhibition Assay
The CD38 hydrolase inhibition assay measures the glycohydrolase activity of CD38, using an NAD analog as substrate and measuring formation of a fluorescent ADP ribose analog. A 4× buffer was prepared with 1M sucrose and 160 mM Tris-HCl at pH 7.4, for a final assay concentration of 250 mM sucrose and 40 mM Tris-HCl. The 4× solution was kept at 4° C. and warmed to room temperature before use. Tween20 was added to 1× buffer for a final concentration of 0.05%. Human recombinant CD38 (BPS Bioscience) was diluted to 0.4 ng/μL in 1× buffer and 12.5 μL added to each plate well. Inhibitors were added and DMSO content was normalized to the highest concentration on the plate, with an upper limit of 0.5%. Finally, ε-NAD was diluted to 200 μM in 1× buffer and 12.5 μL added to each plate well, for final well concentrations of 0.2 ng/μL CD38 and 100 μM ε-NAD. Plates were covered and incubated at room temperature for […], and then read on a plate reader using excitation 300 nm and emission 410 nm. […] IC50s for test compounds were determined either using GraphPad Prism software v9.3, or CDD Vault.

Row | Structure (SMILES) | IC50 [nM]
1 | COc1cc(C(=O)Nc2ccnc(C(F)(F)F)c2)cc(-n2ccnc2)c1 [Compound 115, 3-(imidazol-1-yl)-5-methoxy-N-[2-(trifluoromethyl)pyridin-4-yl]benzamide] | < 100
2 | COCCOc1cc(C(=O)Nc2ccc3cn[nH]c3c2)cc(-n2ccnc2)c1 [Compound 109, 3-(imidazol-1-yl)-N-(1H-indazol-6-yl)-5-(2-methoxyethoxy) benzamide] | < 100
3 | COCCOc1cc(-n2ccnc2)cc(C(=O)Nc2ccnc(C(F)(F)F)c2)c1Cl [Compound 113] | > 1000
4 | COCCOc1cc(C(=O)Nc2ccnc(C(F)(F)F)c2)cc(-n2cncc2CO)c1 [Compound 118] | 100 to 1000
5 | COCCOc1cc(C(=O)Nc2ccc(F)c(Cl)c2)cc(-n2ccnc2)c1 [Compound 111, N-(3-chloro-4-fluorophenyl)-3-(imidazol-1-yl)-5-(2-methoxyethoxy)benzamide] | < 100
6 | CN(C)CCOc1cc(C(=O)Nc2ccnc(C(F)(F)F)c2)cc(-n2ccnc2)c1 [Compound 107, 3-[2-(dimethylamino)ethoxy]-5-(imidazol-1-yl)-N-[2-(trifluoromethyl)pyridin-4-yl]benzamide] | < 100
7 | COCCOc1cc(C(=O)Nc2ccnc(C(F)(F)F)c2)cc(-c2cncs2)c1 [Compound 116, 3-(2-methoxyethoxy)-5-(1,3-thiazol-5-yl)-N-[2-(trifluoromethyl)pyridin-4-yl]benzamide] | < 100
8 | COCCOc1cc(C(=O)Nc2cncc(Cl)c2)cc(-n2ccnc2)c1 [Compound 106, N-(5-chloropyridin-3-yl)-3-(imidazol-1-yl)-5-(2-methoxyethoxy) benzamide] | < 100
9 | COCCOc1cc(C(=O)Nc2ccc(C(F)(F)F)nc2)cc(-n2ccnc2)c1 [Compound 112, 3-(imidazol-1-yl)-5-(2-methoxyethoxy)-N-[6-(trifluoromethyl)pyridin-3-yl]benzamide] | < 100
10 | COCCOc1cc(-n2ccnc2)cc(C(=O)Nc2ccnc(C(F)(F)F)c2)c1F [Compound 117, 2-fluoro-5-(imidazol-1-yl)-3-(2-methoxyethoxy)-N-[2-(trifluoromethyl)pyridin-4-yl]benzamide] | 100 to 1000

More lines, now with the values ahead:

Row | IC50 [nM] | Structure (SMILES)
11 | < 100 | COCCOc1cc(C(=O)Nc2ccc3[nH]cnc3c2)cc(-n2ccnc2)c1 [Compound 127, N-(1H-benzo[d]imidazol-6-yl)-3-(1H-imidazol-1-yl)-5-(2-methoxyethoxy)benzamide]
12 | > 1000 | COCCOc1cc(C(=O)Nc2ccnc(C(F)(F)F)c2)cc(-c2cccnc2)c1 [Compound 120, 3-(2-methoxyethoxy)-5-(pyridin-3-yl)-N-[2-(trifluoromethyl)pyridin-4-yl]benzamide]
13 | < 100 | COCCOc1cc(C(=O)Nc2ccc3nccnc3c2)cc(-n2ccnc2)c1 [Compound 128, 3-(imidazol-1-yl)-5-(2-methoxyethoxy)-N-(quinoxalin-6-yl) benzamide]
14 | < 100 | COCCOc1cc(C(=O)Nc2ccc3[nH]ncc3c2)cc(-n2ccnc2)c1 [Compound 126, 3-(imidazol-1-yl)-N-(1H-indazol-5-yl)-5-(2-methoxyethoxy) benzamide]
